Reference: US9181264B2, “Fused heteroaryls and their uses” (Hutchison MediPharma Limited, priority 2011, dated 2015)
pIC50: −log10 of the molar value.

What was measured:
PI3Kα kinase = biological target: T1, PI3Kα kinase (Homo sapiens, UniProt P42336); experiment: PI3Ka Transcreener ADP assay (fluorescence polarization); format: biochemical; conditions: 10 μM ATP, 30 μmol/L lipid substrate; read-out: IC50, inhibition of PI3Kα kinase
T1 construct: purchased Invitrogen PV4788
Method in brief: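 Transcreener ADP FP assay with PI3Kα (0.2 ng/μL), 30 μmol/L lipid substrate (PIP2) and 10 μM ATP (final) in HEPES pH 7.5 buffer with MgCl2, 0.03% CHAPS, 2% DMSO. 60 min reaction at room temperature, then ADP detection 1.5 h (ex 610/em 670 nm). ADP from standard curve; IC50 fitted.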

mTOR kinase = biological target: T2, mTOR kinase (Homo sapiens, UniProt P42345); experiment: mTOR LanthaScreen TR-FRET assay; format: biochemical; conditions: 10 μmol/L ATP, GFP-4EBP1 substrate; read-out: IC50, inhibition of mTOR
T2 construct: purchased Invitrogen PV4753
Procedure: Compounds are tested using LanthaScreen TR-FRET Assay. The kinase reaction is completed in 384-well black plate (Corning, Cat. 3676). The final conditions for kinase assay are: 10 μmol/L of ATP, 0.2 ng/μL of mTOR kinase, 0.4 μmol/L of GFP-4EBP1 substrate and assay buffer (50 mmol/L of HEPES, pH 7.5, 0.01% of Tween 20, 1 mmol/L of EGTA, 10 mmol/L of MnCl2, 2 mmol/L of DTT and 1% DMSO).
To each well, 2.5 μL of test compounds in 4% DMSO and 2.5 μL of 0.8 ng/μL mTOR kinase (Invitrogen, PV4753) diluted in assay buffer are added. The reaction is initiated by the addition of 5 μL mixture of 0.8 μmol/L GFP-4EBP1 Substrate (Invitorgen, PV4759) and 20 μmol/L ATP mixtures. The mixture is incubated at room temperature for 60 minutes. 10 μL of 20 mmol/L EDTA and 4 nmol/L Tb-anti-p4EBP1 [pThr46] antibody (Invitrogen, PV4755) diluted in TR-FRET dilution buffer are added and incubated for an additional 1 hour. The plate is then read in a BioTek Synergy2 Reader at excitation of 340 nm and emission of 490 nm and 528 nm.
The inhibition of test compound is calculated based on the ratio of 528 nm/490 nm. IC50 of test compound is obtained using XLfit 2.0 software.

T1 sequence (P42336 whole entry): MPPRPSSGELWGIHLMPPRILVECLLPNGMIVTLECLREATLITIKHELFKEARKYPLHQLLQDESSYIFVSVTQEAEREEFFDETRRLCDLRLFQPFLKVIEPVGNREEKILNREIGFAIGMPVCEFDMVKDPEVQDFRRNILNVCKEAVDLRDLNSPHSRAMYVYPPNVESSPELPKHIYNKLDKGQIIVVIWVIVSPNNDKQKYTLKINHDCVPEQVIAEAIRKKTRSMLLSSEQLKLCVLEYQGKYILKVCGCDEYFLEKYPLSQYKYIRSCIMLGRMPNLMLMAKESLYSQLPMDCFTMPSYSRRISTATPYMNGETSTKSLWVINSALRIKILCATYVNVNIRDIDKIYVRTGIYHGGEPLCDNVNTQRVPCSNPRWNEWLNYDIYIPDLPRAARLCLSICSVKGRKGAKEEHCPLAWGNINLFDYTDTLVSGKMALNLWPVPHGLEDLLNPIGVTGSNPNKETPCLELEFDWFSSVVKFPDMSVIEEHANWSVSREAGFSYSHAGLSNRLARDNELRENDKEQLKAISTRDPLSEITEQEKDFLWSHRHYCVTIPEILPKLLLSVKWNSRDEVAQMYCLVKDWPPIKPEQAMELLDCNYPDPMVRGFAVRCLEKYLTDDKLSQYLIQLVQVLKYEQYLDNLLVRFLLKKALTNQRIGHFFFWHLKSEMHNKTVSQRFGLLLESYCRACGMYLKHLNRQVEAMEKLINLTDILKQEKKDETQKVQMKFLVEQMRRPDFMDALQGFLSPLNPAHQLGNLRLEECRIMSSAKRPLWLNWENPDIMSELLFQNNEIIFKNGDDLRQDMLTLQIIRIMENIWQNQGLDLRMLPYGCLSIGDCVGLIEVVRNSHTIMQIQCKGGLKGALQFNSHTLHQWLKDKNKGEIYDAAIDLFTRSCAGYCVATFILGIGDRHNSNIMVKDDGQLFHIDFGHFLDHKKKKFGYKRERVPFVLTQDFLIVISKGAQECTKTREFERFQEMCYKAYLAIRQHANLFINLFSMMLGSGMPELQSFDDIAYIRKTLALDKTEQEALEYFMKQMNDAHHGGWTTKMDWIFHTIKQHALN
T1 sequence (P27986 whole entry partner): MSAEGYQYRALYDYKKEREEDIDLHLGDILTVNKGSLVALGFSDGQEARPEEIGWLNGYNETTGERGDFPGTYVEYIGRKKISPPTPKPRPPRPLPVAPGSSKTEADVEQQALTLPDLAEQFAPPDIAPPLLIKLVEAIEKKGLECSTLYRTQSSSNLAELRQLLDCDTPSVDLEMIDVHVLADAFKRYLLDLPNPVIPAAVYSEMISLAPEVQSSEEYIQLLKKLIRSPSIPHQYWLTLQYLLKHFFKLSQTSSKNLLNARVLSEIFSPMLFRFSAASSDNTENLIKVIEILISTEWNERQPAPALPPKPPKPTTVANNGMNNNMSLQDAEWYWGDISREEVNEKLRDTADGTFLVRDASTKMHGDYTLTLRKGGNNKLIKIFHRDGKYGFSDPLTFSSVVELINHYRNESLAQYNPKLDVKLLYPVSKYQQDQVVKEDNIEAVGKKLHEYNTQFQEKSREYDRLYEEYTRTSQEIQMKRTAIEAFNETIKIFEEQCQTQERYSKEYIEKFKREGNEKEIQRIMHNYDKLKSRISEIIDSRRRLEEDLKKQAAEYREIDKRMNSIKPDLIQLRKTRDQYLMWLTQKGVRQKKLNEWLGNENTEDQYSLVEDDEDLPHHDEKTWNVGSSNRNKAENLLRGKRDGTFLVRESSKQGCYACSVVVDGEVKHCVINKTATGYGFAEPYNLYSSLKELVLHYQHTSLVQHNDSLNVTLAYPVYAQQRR
T2 sequence (P42345 1360-2549 limits assumed): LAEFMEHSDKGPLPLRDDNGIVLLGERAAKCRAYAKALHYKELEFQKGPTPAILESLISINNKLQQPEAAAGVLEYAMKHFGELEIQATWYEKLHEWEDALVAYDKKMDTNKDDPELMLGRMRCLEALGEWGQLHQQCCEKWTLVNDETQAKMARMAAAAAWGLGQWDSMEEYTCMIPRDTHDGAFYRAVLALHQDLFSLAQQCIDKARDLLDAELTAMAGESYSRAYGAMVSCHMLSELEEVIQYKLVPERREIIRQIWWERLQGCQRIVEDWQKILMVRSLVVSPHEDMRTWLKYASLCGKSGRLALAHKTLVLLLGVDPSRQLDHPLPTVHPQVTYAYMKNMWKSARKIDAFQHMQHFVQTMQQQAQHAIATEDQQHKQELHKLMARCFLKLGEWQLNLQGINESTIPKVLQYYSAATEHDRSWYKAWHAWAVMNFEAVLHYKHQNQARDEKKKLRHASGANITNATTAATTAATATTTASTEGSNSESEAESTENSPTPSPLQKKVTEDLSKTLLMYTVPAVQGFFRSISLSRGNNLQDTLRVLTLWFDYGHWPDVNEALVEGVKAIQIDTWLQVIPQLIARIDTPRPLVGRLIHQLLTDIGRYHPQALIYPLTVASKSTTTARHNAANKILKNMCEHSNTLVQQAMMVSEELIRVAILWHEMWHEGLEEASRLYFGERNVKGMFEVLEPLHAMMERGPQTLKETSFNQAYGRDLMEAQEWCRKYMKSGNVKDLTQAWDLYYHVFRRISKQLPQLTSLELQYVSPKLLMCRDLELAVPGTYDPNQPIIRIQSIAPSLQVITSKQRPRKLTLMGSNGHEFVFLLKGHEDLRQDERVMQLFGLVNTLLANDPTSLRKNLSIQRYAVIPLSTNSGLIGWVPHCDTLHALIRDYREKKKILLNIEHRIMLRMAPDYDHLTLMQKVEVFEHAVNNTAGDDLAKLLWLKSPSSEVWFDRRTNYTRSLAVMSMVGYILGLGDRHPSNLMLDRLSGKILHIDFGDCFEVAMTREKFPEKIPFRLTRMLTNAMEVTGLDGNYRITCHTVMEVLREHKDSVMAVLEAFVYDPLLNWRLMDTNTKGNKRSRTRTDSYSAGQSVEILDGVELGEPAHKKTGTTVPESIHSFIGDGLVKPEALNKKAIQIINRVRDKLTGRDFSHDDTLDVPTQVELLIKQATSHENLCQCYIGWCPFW

| pIC50 (PI3Kα kinase) | pIC50 (mTOR kinase) | Structure (SMILES) |
| --- | --- | --- |
| > 7.00 | > 7.00 | COc1ncc(-c2ccc3ncc4nnc(-c5ccc(F)cc5)n4c3c2)cc1NS(C)(=O)=O [Compound 152] |
| > 7.00 | > 7.00 | COc1ncc(-c2ccc3ncc4ncn(C)c4c3n2)cc1NS(=O)(=O)c1ccc(F)cc1F [Compound 153] |
| > 7.00 | > 7.00 | Cc1ncc(-c2ccc3ncc4nnc(C)n4c3c2)cc1NS(=O)(=O)c1ccc(F)cc1F [Compound 156] |
| > 7.00 | > 7.00 | COc1ncc(-c2ccc3ncc4nnc(OC)n4c3c2)cc1NS(=O)(=O)c1ccc(F)cc1F [Compound 157] |
| > 7.00 | > 7.00 | COc1ncc(-c2ccc3ncc4nnc(CN(C)C)n4c3c2)cc1NS(=O)(=O)c1ccc(F)cc1F [Compound 158] |
| > 7.00 | > 7.00 | COc1ncc(-c2ccc3ncc4ncn(C)c4c3n2)cc1NS(=O)(=O)C(F)(F)F [Compound 159] |
| > 7.00 | > 7.00 | COc1ncc(-c2ccc3ncc4ncn(CCN(C)C)c4c3n2)cc1NS(=O)(=O)C(F)(F)F [Compound 178] |
| > 7.00 | > 7.00 | COc1ncc(-c2ccc3ncc4nnc(C)n4c3c2)cc1NS(=O)(=O)c1ccccc1 [Compound 181] |

Further lines, the compound ahead of its results:

| Structure (SMILES) | pIC50 (PI3Kα kinase) | pIC50 (mTOR kinase) |
| --- | --- | --- |
| COc1ncc(-c2ccc3ncc4nc(C)n(C)c4c3n2)cc1NS(=O)(=O)c1ccc(F)cc1F [Compound 151] | > 7.00 | > 7.00 |
| COc1ncc(-c2ccc3ncc4nnn(C)c4c3n2)cc1NS(=O)(=O)c1ccc(F)cc1F [Compound 154] | > 7.00 | > 7.00 |
| COc1ncc(-c2ccc3ncc4nnc(C)n4c3c2)cc1NS(=O)(=O)C(F)(F)F [Compound 155] | > 7.00 | > 7.00 |
| COc1ncc(-c2ccc3ncc4c(c3c2)n(C)c(=O)n4C)cc1NS(=O)(=O)c1ccc(F)cc1F [Compound 160] | > 7.00 | > 7.00 |
| COc1ncc(-c2ccc3ncc4nnc(CN(C)C)n4c3c2)cc1NS(=O)(=O)C(F)(F)F [Compound 165] | > 7.00 | > 7.00 |
| COc1ncc(-c2ccc3ncc4nc(C)n(C)c4c3n2)cc1NS(=O)(=O)C(F)(F)F [Compound 166] | > 7.00 | > 7.00 |
| COc1ncc(-c2ccc3ncc4nnc(C)n4c3c2)cc1NS(=O)(=O)c1ccccc1F [Compound 180] | > 7.00 | > 7.00 |
